Reference: US11897851B2, “Heterocyclic GLP-1 agonists” (Gasherbrum Bio, Inc., priority 2021, dated 2024)

Target: T1, GLP-1 Receptor (Homo sapiens, UniProt P43220)
T1 construct: host or cells: HEK293/GLP1R/CRE-LUC (HEK293/CRE-Luc stably expressing the GLP-1 receptor)
Test: GLP-1R agonist cAMP stimulation assay (HEK293/GLP1R/CRE-LUC cells, Cisbio cAMP dynamic 2 kit);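 further: compounds tested in half-log serial dilution, cAMP detected with cAMP-d2 and anti-cAMP cryptate antibody reagents after 1 h at room temperature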
Format: cell-based
Conditions: HEK293/CRE-Luc cell line stably expressing the GLP-1 Receptor; 1000 cells/well; 30 min at 37° C.; 0.5 mM IBMX, 0.1% BSA; read-out: GLP1R cAMP Stimulation DR: EC50

T1 sequence (P43220 24-463, species assumed): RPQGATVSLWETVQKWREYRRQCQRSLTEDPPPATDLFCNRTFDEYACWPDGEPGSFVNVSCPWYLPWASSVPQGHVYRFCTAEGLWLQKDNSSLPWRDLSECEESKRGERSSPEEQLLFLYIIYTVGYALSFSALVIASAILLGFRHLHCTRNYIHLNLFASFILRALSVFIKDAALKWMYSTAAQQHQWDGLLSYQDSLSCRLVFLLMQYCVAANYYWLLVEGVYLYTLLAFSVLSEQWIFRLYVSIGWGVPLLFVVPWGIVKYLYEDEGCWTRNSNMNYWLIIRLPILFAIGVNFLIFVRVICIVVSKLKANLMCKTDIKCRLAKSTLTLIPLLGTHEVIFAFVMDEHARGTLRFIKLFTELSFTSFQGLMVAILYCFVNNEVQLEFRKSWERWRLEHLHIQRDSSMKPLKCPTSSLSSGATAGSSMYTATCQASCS

Q: For `CCn1cncc1Cn1c(CCC(=O)O)cnc1CN1CCC(c2cccc3c2OC[C@@H](c2ccc(Cl)cc2)O3)CC1` [Compound 245, (R)-3-(2-((4-(2-(4-chlorophenyl)-2,3-dihydrobenzo [b][1,4]dioxin-5-yl)piperidin-1-yl)methyl)-1-((1-ethyl-1H-imidazol-5-yl)methyl)-1H-imidazol-5-yl)propanoic acid], which EC50 is on record?
A: Its EC50 is 0.15 nM.

Q: Which EC50 does the source give for `CCn1cncc1Cn1c(CCC(=O)O)nnc1CN1CCC(c2cccc3c2OC[C@@H](c2ccc(Cl)cc2)O3)CC1` [Compound 246, (R)-3-(5-((4-(2-(4-chlorophenyl)-2,3-dihydrobenzo [b][1,4]dioxin-5-yl)piperidin-1-yl)methyl)-4-((1-ethyl-1H-imidazol-5-yl)methyl)-4H-1,2,4-triazol-3-yl)propanoic acid] here?
A: Its EC50 is 0.38 nM.

Q: With `Cn1c(C2CCC(C(=O)O)C2)cnc1CN1CCC(c2cccc3c2OC(C)(c2ccc(Cl)cc2F)O3)CC1` (stereo not shown) [Compound 247, 3-(2-((4-(2-(4-chloro-2-fluorophenyl)-2-methylbenzo[d][1,3]dioxol-4-yl)piperidin-1-yl)methyl)-1-methyl-1H-imidazol-5-yl)cyclopentane-1-carboxylic acid] as the molecule, how does the EC50 read?
A: The EC50 was 310 nM.

Q: `O=C(O)C1CC1c1cnc(CN2CCC(c3cccc4c3OC[C@@H](c3ccc(Cl)cc3)O4)CC2)n1C[C@@H]1CCO1` (stereo partly drawn) [Compound 248, 2-(2-((4-((R)-2-(4-chlorophenyl)-2,3-dihydrobenzo[b][1,4]dioxin-5-yl)piperidin-1-yl)methyl)-1-(((S)-oxetan-2-yl)methyl)-1H-imidazol-5-yl)cyclopropane-1-carboxylic acid] was tested. Which EC50 did it give?
A: Its EC50 is 35 nM.

Q: For `O=c1[nH]c(-c2cnc(CN3CCC(c4cccc(OCc5ccc(Cl)cc5F)n4)CC3)n2C[C@@H]2CCO2)no1` [Compound 249a, (S)-3-(2-((4-(6-((4-chloro-2-fluorobenzyl)oxy)pyridin-2-yl)piperidin-1-yl)methyl)-1-(oxetan-2-ylmethyl)-1H-imidazol-5-yl)-1,2,4-oxadiazol-5(4H)-one], which EC50 is on record?
A: The EC50 was 3.7 nM.

Q: `Cn1c(-c2cc(=O)[nH]o2)cnc1CN1CCC(c2cccc(OCc3ccc(Cl)cc3F)n2)CC1` [Compound 250, 5-(2-((4-(6-((4-chloro-2-fluorobenzyl)oxy)pyridin-2-yl)piperidin-1-yl)methyl)-1-methyl-1H-imidazol-5-yl)isoxazol-3(2H)-one] was tested. Which EC50 did it give?
A: The EC50 was 1.6 nM.

Q: Which EC50 does the source give for `COCCn1c(Cc2noc(=O)[nH]2)cnc1CN1CCC(c2cccc3c2OC(C)(c2ccc(Cl)cc2F)O3)CC1` (stereo not shown) [Compound 251, 3-((2-((4-(2-(4-chloro-2-fluorophenyl)-2-methylbenzo[d][1,3]dioxol-4-yl)piperidin-1-yl)methyl)-1-(2-methoxyethyl)-1H-imidazol-5-yl)methyl)-1,2,4-oxadiazol-5(4H)-one] here?
A: The EC50 was 13 nM.

Q: `Cc1cc(-c2noc(=O)[nH]2)cnc1CN1CCC(c2cccc3c2OC(C)(c2ccc(Cl)cc2F)O3)CC1` (stereo not shown) [Compound 252, 3-(6-((4-(2-(4-chloro-2-fluorophenyl)-2-methylbenzo[d][1,3]dioxol-4-yl)piperidin-1-yl)methyl)-5-methylpyridin-3-yl)-1,2,4-oxadiazol-5(4H)-one] was tested. Which EC50 did it give?
A: The EC50 was 11 nM.

Q: With `Cc1cc(-c2nnn[nH]2)cnc1CN1CCC(c2cccc3c2OC(C)(c2ccc(Cl)cc2F)O3)CC1` (stereo not shown) [Compound 253, 2-({4-[2-(4-chloro-2-fluorophenyl)-2-methyl-2H-1,3-benzodioxol-4-yl]piperidin-1-yl}methyl)-3-methyl-5-(1H-1,2,3,4-tetrazol-5-yl)pyridine] as the molecule, how does the EC50 read?
A: Its EC50 is 4 nM.

Q: With `Cc1cc(-c2n[nH]c(=O)o2)cnc1CN1CCC(c2cccc3c2OC(C)(c2ccc(Cl)cc2F)O3)CC1` (stereo not shown) [Compound 254, 5-[6-({4-[2-(4-chloro-2-fluorophenyl)-2-methyl-2H-1,3-benzodioxol-4-yl]piperidin-1-yl}methyl)-5-methylpyridin-3-yl]-2,3-dihydro-1,3,4-oxadiazol-2-one] as the molecule, how does the EC50 read?
A: The EC50 was 10 nM.

Q: Which EC50 does the source give for `Cc1cc(-c2nnc(C(F)(F)F)[nH]2)cnc1CN1CCC(c2cccc3c2OC(C)(c2ccc(Cl)cc2F)O3)CC1` (stereo not shown) [Compound 255, 2-({4-[2-(4-chloro-2-fluorophenyl)-2-methyl-2H-1,3-benzodioxol-4-yl]piperidin-1-yl}methyl)-3-methyl-5-[5-(trifluoromethyl)-4H-1,2,4-triazol-3-yl]pyridine] here?
A: Its EC50 is 8.3 nM.

Q: How did the EC50 turn out when `COCCc1cc(-c2nnn[nH]2)cnc1CN1CCC(c2cccc3c2OC(C)(c2ccc(Cl)cc2F)O3)CC1` (stereo not shown) [Compound 256, 2-({4-[2-(4-chloro-2-fluorophenyl)-2-methyl-2H-1,3-benzodioxol-4-yl]piperidin-1-yl}methyl)-3-(2-methoxyethyl)-5-(1H-1,2,3,4-tetrazol-5-yl)pyridine] was run?
A: The EC50 was 5 nM.

Q: Which EC50 does the source give for `Cc1cc(-c2nnc(C(F)F)[nH]2)cnc1CN1CCC(c2cccc3c2OC(C)(c2ccc(Cl)cc2F)O3)CC1` (stereo not shown) [Compound 257, 2-({4-[2-(4-chloro-2-fluorophenyl)-2-methyl-2H-1,3-benzodioxol-4-yl]piperidin-1-yl}methyl)-5-[5-(difluoromethyl)-4H-1,2,4-triazol-3-yl]-3-methylpyridine] here?
A: The EC50 was 14 nM.

Q: How did the EC50 turn out when `C[C@]1(c2ccc(Cl)cc2F)Oc2cccc(C3CCN(Cc4ncc(-c5nnc(C(F)(F)F)[nH]5)cc4CC4(C#N)CC4)CC3)c2O1` [Compound 258, 1-{[2-({4-[(2S)-2-(4-chloro-2-fluorophenyl)-2-methyl-2H-1,3-benzodioxol-4-yl]piperidin-1-yl}methyl)-5-[5-(trifluoromethyl)-4H-1,2,4-triazol-3-yl]pyridin-3-yl]methyl}cyclopropane-1-carbonitrile] was run?
A: The EC50 was 0.0061 nM.

Q: With `COCCc1cc(-c2nnc(C(F)(F)F)[nH]2)cnc1CN1CCC(c2cccc3c2O[C@@](C)(c2ccc(Cl)cc2F)O3)CC1` [Compound 259, 2-({4-[(2S)-2-(4-chloro-2-fluorophenyl)-2-methyl-2H-1,3-benzodioxol-4-yl]piperidin-1-yl}methyl)-3-(2-methoxyethyl)-5-[5-(trifluoromethyl)-4H-1,2,4-triazol-3-yl]pyridine] as the molecule, how does the EC50 read?
A: The EC50 was 0.53 nM.

Q: How did the EC50 turn out when `COCCc1cc(-c2nnc(C(F)(F)F)[nH]2)cnc1CN1CCC(c2cccc3c2O[C@@](C)(c2ccc(C#N)cc2F)O3)CC1` [Compound 260, 3-fluoro-4-[(2S)-4-(1-{[3-(2-methoxyethyl)-5-[5-(trifluoromethyl)-4H-1,2,4-triazol-3-yl]pyridin-2-yl]methyl}piperidin-4-yl)-2-methyl-2H-1,3-benzodioxol-2-yl]benzonitrile] was run?
A: Its EC50 is 2.3 nM.

Q: With `COCCc1cc(-c2nnc(C(F)(F)F)[nH]2)cnc1CN1CCC(c2cccc3c2OC(C)(c2ccc(Cl)cc2)O3)CC1` (stereo not shown) [Compound 261, 2-({4-[2-(4-chlorophenyl)-2-methyl-2H-1,3-benzodioxol-4-yl]piperidin-1-yl}methyl)-3-(2-methoxyethyl)-5-[5-(trifluoromethyl)-4H-1,2,4-triazol-3-yl]pyridine] as the molecule, how does the EC50 read?
A: The EC50 was 5.3 nM.

Q: With `Cc1cc(-c2nnc(C(F)(F)F)[nH]2)cnc1CN1CCC(c2cccc3c2OC(C)(c2ccc(F)cc2F)O3)CC1` (stereo not shown) [Compound 262, 2-({4-[2-(2,4-difluorophenyl)-2-methyl-2H-1,3-benzodioxol-4-yl]piperidin-1-yl}methyl)-3-methyl-5-[5-(trifluoromethyl)-4H-1,2,4-triazol-3-yl]pyridine] as the molecule, how does the EC50 read?
A: Its EC50 is 3 nM.

Q: `Cc1cc(-c2nnc(C(F)(F)F)[nH]2)cnc1CN1CCC(c2cccc3c2OC(C)(c2ccc(F)cc2)O3)CC1` (stereo not shown) [Compound 263, 2-({4-[2-(4-fluorophenyl)-2-methyl-2H-1,3-benzodioxol-4-yl]piperidin-1-yl}methyl)-3-methyl-5-[5-(trifluoromethyl)-4H-1,2,4-triazol-3-yl]pyridine] was tested. Which EC50 did it give?
A: Its EC50 is 6.8 nM.
